Patent US20260356851A1, “TRICYCLIC COMPOUNDS AND USES THEREOF” (HUTCHMED LIMITED, priority 2023, published 2026)
pIC50: −log10 of the molar value.

Key:
Assay type in all cases: cell-based
[1] = target: T1, pERK1/2 (Thr202/Tyr204), NCI-1H358 (KRAS G12C) (Homo sapiens, UniProt P01116, G12C); assay: Assay of intracellular pERK1/2 (Thr202/Tyr204) phosphorylation in NCI-H358 cells (KRAS G12C); conditions: pERK1/2, 2 days, read-out: NCI-H358 (KRAS G12C) IC50
T1 construct: pERK1/2 HTRF read-out
In short: (§1)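 HTRF detection of Thr202/Tyr204-phosphorylated ERK1/2 (665/615 nm ratio) in lysates from cells treated 2 days with serially 3-fold diluted compound.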

[2] = target: T2, pERK1/2 (Thr202/Tyr204), NCI-1H441 (KRAS G12V) (Homo sapiens, UniProt P01116, G12V); assay: Assay of intracellular pERK1/2 (Thr202/Tyr204) phosphorylation in NCI-H441 cells (KRAS G12V); conditions: pERK1/2, 2 days, read-out: NCI-H441 (KRAS G12V) IC50
T2 construct: pERK1/2 HTRF read-out
In short: as §1

[3] = target: T3, pERK1/2 (Thr202/Tyr204), PANC-1 (KRAS G121D) (Homo sapiens, UniProt P01116, G12D); assay: Assay of intracellular pERK1/2 (Thr202/Tyr204) phosphorylation in PANC-1 cells (KRAS G12D); conditions: pERK1/2, 2 days, read-out: PANC-1 (KRAS G12D) IC50
T3 construct: pERK1/2 HTRF read-out
In short: as §1

T1 sequence (P01116 1-188 isoform P01116-2 G12C): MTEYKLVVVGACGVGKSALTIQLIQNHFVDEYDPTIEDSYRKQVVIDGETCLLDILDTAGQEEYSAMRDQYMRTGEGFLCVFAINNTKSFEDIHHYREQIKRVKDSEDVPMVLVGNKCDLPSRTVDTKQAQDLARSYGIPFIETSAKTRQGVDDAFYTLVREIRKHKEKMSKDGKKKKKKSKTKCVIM
T2 sequence (P01116 1-188 isoform P01116-2 G12V): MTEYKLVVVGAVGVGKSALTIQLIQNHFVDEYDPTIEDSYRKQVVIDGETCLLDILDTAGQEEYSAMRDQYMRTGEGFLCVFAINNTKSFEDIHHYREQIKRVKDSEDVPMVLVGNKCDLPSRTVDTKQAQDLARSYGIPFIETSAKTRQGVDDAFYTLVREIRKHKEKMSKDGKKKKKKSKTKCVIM
T3 sequence (P01116 1-188 isoform P01116-2 G12D): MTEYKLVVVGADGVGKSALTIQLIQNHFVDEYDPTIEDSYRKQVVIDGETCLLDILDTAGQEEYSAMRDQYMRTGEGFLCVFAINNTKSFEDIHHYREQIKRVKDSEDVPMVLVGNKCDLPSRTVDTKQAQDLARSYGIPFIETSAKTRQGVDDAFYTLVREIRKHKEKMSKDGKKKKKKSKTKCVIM

CC(c1cccnc1N)N1CCOc2nc(-c3cc(N)cc(Cl)c3C(F)(F)F)c(F)c3nc(OC[C@@H]4CCCN4C)nc1c23 (single isomer, unassigned) [Compound 99, 3-((R or S)-1-(5-(5-amino-3-chloro-2-(trifluoromethyl)phenyl)-4-fluoro-2-(((S)-1-methylpyrrolidin-2-yl)methoxy)-8,9-dihydro-10H-7-oxa-1,3,6,10-tetraazacyclohepta[de]naphthalen-10-yl)ethyl)pyridin-2-amine]
pIC50 [1]: 7.57 | pIC50 [2]: 7.48 | pIC50 [3]: < 7.00

CC(c1cccnc1N)N1c2nc(OC[C@@]34CCCN3C[C@H](F)C4)nc3c(F)c(-c4cc(=O)[nH]c5ccccc45)nc(c23)OC[C@@H]1C (stereo partly drawn) [Compound 360]
pIC50 [1]: < 7.00 | pIC50 [2]: < 7.00 | pIC50 [3]: < 7.00

C[C@@H](c1cccnc1N)N1CCOc2nc(-c3c(C(F)(F)F)ccc4[nH]ncc34)c(F)c3nc(OC[C@@H]4CCN4CC(F)F)nc1c23 (single isomer, unassigned) [Compound 39, 3-((1R or 1S)-1-(2-(((S)-1-(2,2-difluoroethyl)azetidin-2-yl)methoxy)-4-fluoro-5-(5-(trifluoromethyl)-1H-indazol-4-yl)-8,9-dihydro-10H-7-oxa-1,3,6,10-tetraazacyclohepta[de]naphthalen-10-yl)ethyl)pyridin-2-amine]
pIC50 [1]: 8.70 | pIC50 [2]: 8.15 | pIC50 [3]: 6.63

CC(c1cccnc1N)N1CCOc2nc(-c3cc(N)cc(Cl)c3C3CC3)c(F)c3nc(OCC4(C#N)CC4)nc1c23 (stereo not drawn) [Compound 68]
pIC50 [1]: 6.58 | pIC50 [2]: 6.30 | pIC50 [3]: < 6.00

Cc1cc(N)cc(-c2nc3c4c(nc(OC[C@@H]5C[C@@H](F)CN5C)nc4c2F)N(C(C)c2cccnc2N)CCO3)c1C(F)(F)F (single isomer, unassigned) [Compound 80, 3-((R or S)-1-(5-(5-amino-3-methyl-2-(trifluoromethyl)phenyl)-4-fluoro-2-(((2S,4R)-4-fluoro-1-methylpyrrolidin-2-yl)methoxy)-8,9-dihydro-10H-7-oxa-1,3,6,10-tetraazacyclohepta[de]naphthalen-10-yl)ethyl)pyridin-2-amine]
pIC50 [1]: 9.30 | pIC50 [2]: 9.15 | pIC50 [3]: 7.72

CC(c1cccnc1N)N1c2nc(OC[C@@]34CCCN3C[C@H](F)C4)nc3c(F)c(-c4ccc(F)c5sc(N)c(C#N)c45)nc(c23)OC[C@@H]1C (stereo partly drawn) [Compound 328]
pIC50 [1]: 9.30 | pIC50 [2]: 9.10 | pIC50 [3]: 9.10

CC(c1cccnc1N)N1c2nc(OC[C@@]34CCCN3C[C@H](F)C4)nc3c(F)c(-c4c(C(F)(F)F)cnc5[nH]ccc45)nc(c23)OC[C@@H]1C (stereo partly drawn) [Compound 323]
pIC50 [1]: 9.22 | pIC50 [2]: 8.70 | pIC50 [3]: 8.00

CC(c1cccnc1N)N1CCOc2nc(-c3nc(N)cc4ccccc34)c(F)c3nc(OC[C@@H]4CCCN4C)nc1c23 (stereo partly drawn) [Compound 28, 1-(10-(1-(2-aminopyridin-3-yl)ethyl)-4-fluoro-2-(((S)-1-methylpyrrolidin-2-yl)methoxy)-9,10-dihydro-8H-7-oxa-1,3,6,10-tetraazacyclohepta[de]naphthalen-5-yl)isoquinolin-3-amine]
pIC50 [1]: 6.35 | pIC50 [2]: < 6.00 | pIC50 [3]: < 6.00

CC(c1cccnc1N)N1c2nc(OC[C@@]34CCCN3C[C@H](F)C4)nc3c(F)c(-c4c(C(F)(F)F)ccc5c4CCCN5)nc(c23)OC[C@@H]1C (single isomer, unassigned; diastereomer 1) [Compound 338, (*)3-(1-((5R or 5S,9S)-4-fluoro-2-(((2R,7aS)-2-fluorotetrahydro-1H-pyrrolizin-7a(5H)-yl)methoxy)-9-methyl-5-(6-(trifluoromethyl)-1,2,3,4-tetrahydroquinolin-5-yl)-8,9-dihydro-10H-7-oxa-1,3,6,10-tetraazacyclohepta[de]naphthalen-10-yl)ethyl)pyridin-2-amine (diastereomer 1)]
pIC50 [1]: 7.64 | pIC50 [2]: 7.31 | pIC50 [3]: < 7.00

Cc1c(C(F)(F)F)c(-c2nc3c4c(nc(OC[C@@]56CCCN5C[C@H](F)C6)nc4c2F)N(C(C)c2cccnc2N)[C@@H](C)CO3)c2c(Cl)n[nH]c2c1F (single isomer, unassigned) [Compound 382]
pIC50 [1]: 8.52 | pIC50 [2]: 8.30 | pIC50 [3]: 8.70

C#Cc1c(F)ccc2cc(O)cc(-c3nc4c5c(nc(OC[C@@]67CCCN6C[C@H](F)C7)nc5c3F)N(C(C)c3cccnc3N)[C@@H](C)CO4)c12 (single isomer, unassigned) [Compound 273, 4-((S)-10-((R or S)-1-(2-aminopyridin-3-yl)ethyl)-4-fluoro-2-(((2R,7aS)-2-fluorotetrahydro-1H-pyrrolizin-7a(5H)-yl)methoxy)-9-methyl-9,10-dihydro-8H-7-oxa-1,3,6,10-tetraazacyclohepta[de]naphthalen-5-yl)-5-ethynyl-6-fluoronaphthalen-2-ol]
pIC50 [1]: 9.30 | pIC50 [2]: 9.00 | pIC50 [3]: 9.40

[2H]C1([2H])CC[C@@]2(C([2H])([2H])Oc3nc4c5c(nc(-c6cc(N)c(F)c(C)c6C(F)(F)F)c(F)c5n3)OCCN4C(C)c3cccnc3N)C[C@@H](F)CN12 (stereo partly drawn) [Compound 119]
pIC50 [1]: 9.52 | pIC50 [2]: 9.40 | pIC50 [3]: 8.70

C[C@H](c1cccnc1N)N1CCOc2nc(-c3c(C(F)(F)F)ccc4[nH]ncc34)c(F)c3nc(OC[C@@H]4CCN4CC(F)F)nc1c23 (single isomer, unassigned) [Compound 38, 3-((1R or 1S)-1-(2-(((S)-1-(2,2-difluoroethyl)azetidin-2-yl)methoxy)-4-fluoro-5-(5-(trifluoromethyl)-1H-indazol-4-yl)-8,9-dihydro-10H-7-oxa-1,3,6,10-tetraazacyclohepta[de]naphthalen-10-yl)ethyl)pyridin-2-amine]
pIC50 [1]: 6.23 | pIC50 [2]: 6.19 | pIC50 [3]: < 6.00

COc1cc2cn[nH]c2cc1-c1nc2c3c(nc(OC[C@@]45CCCN4C[C@H](F)C5)nc3c1F)N(C(C)c1cccnc1N)[C@@H](C)CO2 (stereo partly drawn) [Compound 316]
pIC50 [1]: < 7.00 | pIC50 [2]: < 7.00 | pIC50 [3]: < 7.00

Cc1cc(N)cc(-c2nc3c4c(nc(OC[C@@]56CCCN5C[C@H](F)C6)nc4c2F)N(C(C)c2cccnc2N)CCO3)c1C(F)(F)F (stereo partly drawn) [Compound 59]
pIC50 [1]: 9.70 | pIC50 [2]: 9.15 | pIC50 [3]: 8.70

Cc1cc(N)cc(-c2nc3c4c(nc(OC[C@H]5CCCN5C)nc4c2F)N(C(C)c2cccnc2N)CCO3)c1C(F)(F)F (single isomer, unassigned) [Compound 109, 3-((R or S)-1-(5-(5-amino-3-methyl-2-(trifluoromethyl)phenyl)-4-fluoro-2-(((R)-1-methylpyrrolidin-2-yl)methoxy)-8,9-dihydro-10H-7-oxa-1,3,6,10-tetraazacyclohepta[de]naphthalen-10-yl)ethyl)pyridin-2-amine]
pIC50 [1]: 9.05 | pIC50 [2]: 8.70 | pIC50 [3]: 7.39

CC(c1cccnc1N)N1CCOc2nc(-c3cc(O)cc4ccc(F)c(F)c34)c(F)c3nc(OC[C@@H]4COCCN4)nc1c23 (stereo partly drawn) [Compound 13]
pIC50 [1]: 6.86 | pIC50 [2]: 6.61 | pIC50 [3]: < 6.00

Cc1cc(N)cc(-c2nc3c4c(nc(OC[C@@H]5CCCN5C)nc4c2F)N(C(C)c2cccnc2N)CCO3)c1C(F)(F)F (stereo partly drawn) [Compound 65]
pIC50 [1]: 9.00 | pIC50 [2]: 8.70 | pIC50 [3]: 7.59

Cc1cc(N)nc(-c2nc3c4c(nc(OC[C@@]56CCCN5C[C@H](F)C6)nc4c2F)N(C(C)c2cccnc2N)[C@@H](C)CO3)c1C(F)(F)F (stereo partly drawn) [Compound 326, (*)6-((9S)-10-(1-(2-aminopyridin-3-yl)ethyl)-4-fluoro-2-(((2R,7aS)-2-fluorotetrahydro-1H-pyrrolizin-7a(5H)-yl)methoxy)-9-methyl-9,10-dihydro-8H-7-oxa-1,3,6,10-tetraazacyclohepta[de]naphthalen-5-yl)-4-methyl-5-(trifluoromethyl)pyridin-2-amine]
pIC50 [1]: 9.00 | pIC50 [2]: 8.52 | pIC50 [3]: 8.52

C[C@@H](c1cccnc1N)N1c2nc(OC[C@@]34CCCN3C[C@H](F)C4)nc3c(F)c(-c4c5ccccc5cc5[nH]ncc45)nc(c23)O[C@@H]2CCC[C@@H]21 [Compound 400]
pIC50 [1]: 6.17 | pIC50 [2]: < 6.00 | pIC50 [3]: 6.08

CC(c1cccnc1N)N1CCOc2nc(-c3cc(O)cc4ccc(F)c(F)c34)c(F)c3nc(OC[C@@H]4CC(F)(F)CN4C)nc1c23 (single isomer, unassigned) [Compound 50, 4-(10-((R or S)-1-(2-aminopyridin-3-yl)ethyl)-2-(((S)-4,4-difluoro-1-methylpyrrolidin-2-yl)methoxy)-4-fluoro-9,10-dihydro-8H-7-oxa-1,3,6,10-tetraazacyclohepta[de]naphthalen-5-yl)-5,6-difluoronaphthalen-2-ol]
pIC50 [1]: 6.04 | pIC50 [2]: < 6.00 | pIC50 [3]: < 6.00

CC(c1cccnc1N)N1CCOc2nc(-c3cc(N)cc(Cl)c3C(F)(F)F)c(F)c3nc(OC[C@@H]4CCCN4C)nc1c23 (single isomer, unassigned) [Compound 98, 3-((R or S)-1-(5-(5-amino-3-chloro-2-(trifluoromethyl)phenyl)-4-fluoro-2-(((S)-1-methylpyrrolidin-2-yl)methoxy)-8,9-dihydro-10H-7-oxa-1,3,6,10-tetraazacyclohepta[de]naphthalen-10-yl)ethyl)pyridin-2-amine]
pIC50 [1]: 9.52 | pIC50 [2]: 9.30 | pIC50 [3]: 8.00

Cc1cc(N)cc(-c2nc3c4c(nc(OC[C@@]56CCCN5C[C@H](F)C6)nc4c2F)N(C(C)c2cccnc2N)[C@@H](C)CO3)c1C(F)(F)F (stereo partly drawn) [Compound 262]
pIC50 [1]: 7.55 | pIC50 [2]: 7.33 | pIC50 [3]: 7.40
